US12319643B2, “Ionizable compounds and compositions and uses thereof” (Nitto Denko Corporation, priority 2015, dated 2025)

Legend:
[1] = pKa (Table 9, lipid formulations for siRNA); type: physicochemical; details: only or first value of the cell
GFP = assay: EC50 of nanoparticle formulations, GFP siRNA; type: cell-based; details: nanoparticles Ionizable compound/DOPE/Cholesterol/DMPE-PEG 50/28/21/1 mol %
Experimental: (§1) Example 39: Formulations were Prepared for Encapsulating a Small Interfering Nucleic Acid Agents (siRNA)
(§2) Lipid nanoparticle formulations were prepared with the following compositions: […]
(§3) (Ionizable compound/DOPE/Cholesterol/DMPE-PEG) mol % • 50/28/21/1.
The formulations were capable of encapsulating the siRNA, and retaining stability in human serum.

[2] = Serum stability of nanoparticle formulations, t(½) in human serum at 37 C; type: in vitro ADME; details: Table 10, nanoparticles Ionizable compound/DOPE/Cholesterol/DMPE-PEG 50/28/21/1 mol %
Experimental: as §1, §2, §3
The formulations were capable of encapsulating the siRNA, and retaining stability in human serum. […]

[3] = Encapsulation efficiency for siRNA of lipid (nanoparticle) formulations; type: physicochemical; details: Table 8: nanoparticles Ionizable compound/DOPE/DOPC/Cholesterol/DMPE-PEG 50/28/0/21/1, 50/28/0/20/2 or 26/21/21/31/1 mol %
Experimental: (§4) Example 38: Formulations were Prepared for Encapsulating a Small Interfering Nucleic Acid Agents (siRNA)
as §2

[4] = Particle size Z (ave) of siRNA lipid nanoparticle formulations; type: physicochemical; details: Table 8: nanoparticles Ionizable compound/DOPE/DOPC/Cholesterol/DMPE-PEG 50/28/0/21/1, 50/28/0/20/2 or 26/21/21/31/1 mol %
Experimental: as §4, §2

Structure (SMILES) | pKa [1] | EC50 (GFP) | t(½) (hr) human serum 37 C. [2] | EE* (%) Encapsulation efficiency for siRNA [3] | Z (ave) nm [4]
CCCCCCCCCCCCCC(=O)OCCN(CCOC(=O)CCCCCCCCCCCCC)C(=O)CN1C[C@H](O)[C@@H](O)C1 [Compound A4, ((2-((3S,4S)-3,4-dihydroxypyrrolidin-1-yl)acetyl)azanediyl)bis(ethane-2,1-diyl) ditetradecanoate] | 5.8 | – | – | – | –
CCCCC/C=C\C/C=C\CCCCCCCC(=O)OCCN(CCOC(=O)CCCCCCC/C=C\C/C=C\CCCCC)C(=O)CN1C[C@@H](O)[C@H](O)C1 [Compound A5, ((2-((3R,4R)-3,4-dihydroxypyrrolidin-1-yl)acetyl)azanediyl)bis(ethane-2,1-diyl) (9Z,9′Z,12Z,12′Z)-bis(octadeca-9,12-dienoate)] | 6.1 | 0.0069 µM | >50 h | – | –
CCCCC/C=C\C/C=C\CCCCCCCC(=O)OCCN(CCOC(=O)CCCCCCC/C=C\C/C=C\CCCCC)C(=O)CN1C[C@@H](O)[C@@H](O)C1 [Compound A6, ((2-((3S,4R)-3,4-dihydroxypyrrolidin-1-yl)acetyl)azanediyl)bis(ethane-2,1-diyl) (9Z,9′Z,12Z,12′Z)-bis(octadeca-9,12-dienoate)] | 6.3 | 0.011 µM | >50 h | 96% | 121 nm
CCCCC/C=C\C/C=C\CCCCCCCC(=O)OCCN(CCOC(=O)CCCCCCC/C=C\C/C=C\CCCCC)C(=O)OCCN(C)C [Compound A7, (((2-(dimethylamino)ethoxy)carbonyl)azanediyl)bis(ethane-2,1-diyl) (9Z,9′Z,12Z,12′Z)-bis(octadeca-9,12-dienoate)] | 7.6 | 0.035 µM | >50 h | – | –
CCCCC/C=C\C/C=C\CCCCCCCC(=O)OCCN(CCOC(=O)CCCCCCC/C=C\C/C=C\CCCCC)C(=O)OCC[N+](C)(C)C [Compound A8, 2-((bis(2-(((9Z,12Z)-octadeca-9,12-dienoyl)oxy)ethyl)carbamoyl)oxy)-N,N,N-trimethylethan-1-aminium] | – | – | >50 h | – | –
CCCCCCCCCCCCCC(=O)OCCN(CCOC(=O)CCCCCCCCCCCCC)C(=O)CN1CC(CO)C1 [Compound A9, ((2-(3-(hydroxymethyl)azetidin-1-yl)acetyl)azanediyl)bis(ethane-2,1-diyl) ditetradecanoate] | 7.4 | 0.031 µM | – | 95% | 97 nm
CCCCC/C=C\C/C=C\CCCCCCCC(=O)OCCN(CCOC(=O)CCCCCCC/C=C\C/C=C\CCCCC)C(=O)CN1CCN(CCCO)CC1 [Compound AA] | 7.4 | 0.022 µM | – | 90% | 120 nm
CCCCC/C=C\C/C=C\CCCCCCCC(=O)OCCN(CCOC(=O)CCCCCCC/C=C\C/C=C\CCCCC)C(=O)CN1CCN(CCO)CC1 [Compound AB, ((2-(4-(2-hydroxyethyl)piperazin-1-yl)acetyl)azanediyl)bis(ethane-2,1-diyl) (9Z,9′Z,12Z,12′Z)-bis(octadeca-9,12-dienoate)] | 6.9 | 0.0074 µM | >50 h | – | –
CCCCCCCCCCCCCC(=O)OCCN(CCOC(=O)CCCCCCCCCCCCC)C(=O)CCCC(=O)O [Compound B8] | 4.3 | – | >50 h | – | –
CCCC/C=C\C/C=C\CCCCCCCCOC(=O)CC(CC(=O)OCCCCCCCC/C=C\C/C=C\CCCCC)NC(=O)C[N+](C)(C)C (centres unmarked) [Compound C2, 2-((1-(((9Z,12Z)-heptadeca-9,12-dien-1-yl)oxy)-5-(((9Z,12Z)-octadeca-9,12-dien-1-yl)oxy)-1,5-dioxopentan-3-yl)amino)-N,N,N-trimethyl-2-oxoethan-1-aminium] | – | 0.033 µM | – | 95% | 111 nm
CCCC/C=C\C/C=C\CCCCCCCCOC(=O)CC(CC(=O)OCCCCCCCC/C=C\C/C=C\CCCCC)NC(=O)CN(C)C (centres unmarked) [Compound C3, 1-((9Z,12Z)-heptadeca-9,12-dien-1-yl) 5-((9Z,12Z)-octadeca-9,12-dien-1-yl) 3-(2-(dimethylamino)acetamido)pentanedioate] | 6.9 | – | – | – | –
CCCCC/C=C\C/C=C\CCCCCCCCOC(=O)[C@H](CNC(=O)C[N+](C)(C)C)NC(=O)CCCCCCC/C=C\C/C=C\CCCCC [Compound C24, N,N,N-trimethyl-2-(((S)-3-(((9Z,12Z)-octadeca-9,12-dien-1-yl)oxy)-2-((9Z,12Z)-octadeca-9,12-dienamido)-3-oxopropyl)amino)-2-oxoethan-1l-aminium] | – | 0.092 µM | >50 h | 98% | 127 nm
CCCCC/C=C\C/C=C\CCCCCCCCOC(=O)[C@H](CNC(=O)CN(C)C)NC(=O)CCCCCCC/C=C\C/C=C\CCCCC [Compound C25, (9Z,12Z)-octadeca-9,12-dien-1-yl (S)-3-(2-(dimethylamino)acetamido)-2-((9Z,12Z)-octadeca-9,12-dienamido)propanoate] | – | – | >50 h | – | –
CCCCC/C=C\C/C=C\CCCCCCCCOC(=O)CC(CC(=O)OCCCCCCCC/C=C\C/C=C\CCCCC)NC(=O)CN1CCN(CCO)CC1 [Compound CA, di((9Z,12Z)-octadeca-9,12-dien-1-yl) 3-(2-(4-(2-hydroxyethyl)piperazin-1-yl)acetamido)pentanedioate] | – | < 0.05 µM | – | – | –
CCCCC/C=C\C/C=C\CCCCCCCCOC(=O)CC(CC(=O)OCCCCCCCC/C=C\C/C=C\CCCCC)NC(=O)SCCN(C)C [Compound DD, di((9Z,12Z)-octadeca-9,12-dien-1-yl) 3-((((2-(dimethylamino)ethyl)thio)carbonyl)amino)pentanedioate] | 5.1 | – | >50 h | 92% | 137 nm
CCCCC/C=C\C/C=C\CCCCCCCCOC(=O)CC(CC(=O)OCCCCCCCC/C=C\C/C=C\CCCCC)NC(=O)OCCN(C)C [Compound E4, di((9Z,12Z)-octadeca-9,12-dien-1-yl) 3-(((2-(dimethylamino)ethoxy)carbonyl)amino)pentanedioate] | – | 0.0027 µM | >50 h | 94% | 131 nm
CCCCC/C=C\C/C=C\CCCCCCCCOC(=O)[C@@H]1C[C@@H](NC(=O)CCN(C)C)CN1C(=O)CCCCCCC/C=C\C/C=C\CCCCC [Compound E37, (9Z,12Z)-octadeca-9,12-dien-1-yl (2S,4R)-4-(3-(dimethylamino)propanamido)-1-((9Z,12Z)-octadeca-9,12-dienoyl)pyrrolidine-2-carboxylate] | 9.2 | – | – | – | –
CCCCC/C=C\C/C=C\CCCCCCCCOC(=O)[C@@H]1C[C@@H](NC(=O)CCCN(C)C)CN1C(=O)CCCCCCC/C=C\C/C=C\CCCCC [Compound E38, (9Z,12Z)-octadeca-9,12-dien-1-yl (2S,4R)-4-(4-(dimethylamino)butanamido)-1-((9Z,12Z)-octadeca-9,12-dienoyl)pyrrolidine-2-carboxylate] | – | – | >50 h | – | –
CCCCC/C=C\C/C=C\CCCCCCCCOC(=O)[C@@H]1C[C@@H](NC(=O)CCC[N+](C)(C)C)CN1C(=O)CCCCCCC/C=C\C/C=C\CCCCC [Compound E39, N,N,N-trimethyl-4-(((3R,5S)-5-((((9Z,12Z)-octadeca-9,12-dien-1-yl)oxy)carbonyl)-1-((9Z,12Z)-octadeca-9,12-dienoyl)pyrrolidin-3-yl)amino)-4-oxobutan-1-aminium] | – | – | >50 h | – | –
CCCCC/C=C\C/C=C\CCCCCCCC(=O)OCCN(CCCN(C)C)C(=O)CCCCCCC/C=C\C/C=C\CCCCC [Compound F5, 2-((9Z,12Z)—N-(3-(dimethylamino)propyl)octadeca-9,12-dienamido)ethyl (9Z,12Z)-octadeca-9,12-dienoate] | 9.4 | 0.033 µM | – | – | –
CCCCC/C=C\C/C=C\CCCCCCCC(=O)OCCN(CCCCN(C)C)C(=O)CCCCCCC/C=C\C/C=C\CCCCC [Compound F6, 2-((9Z,12Z)—N-(4-(dimethylamino)butyl)octadeca-9,12-dienamido)ethyl (9Z,12Z)-octadeca-9,12-dienoate] | 9.3 | – | – | – | –
